# Reference: patent US20240197658A1, “COMPOSITION FOR INHIBITING ANTI-CANCER DRUG RESISTANCE” (AJOU UNIVERSITY INDUSTRY-ACADEMIC COOPERATION FOUNDATION, priority 2022, published 2024)
# Columns and labels:
# Format in all cases: cell-based
# [1] = test system: fibroblasts CAF47, CAF51, CAF98, and CAF104; assay: Confirmation of inhibition of senescence of fibroblasts (shape observation); conditions: FIG. 2
# Method: An experiment was performed to confirm changes in shapes of fibroblasts by treating several fibroblasts CAF47, CAF51, CAF98, and CAF104 with an anti-cancer drug, 5-fluorouracil (5-FU), and then treating Example thereto.
# FIG. 2 illustrates results of observing the shapes of fibroblasts under various conditions according to Experimental Example of the present disclosure.
# [2] = test system: SNU668 cells; assay: Cell viability of gastric cancer cells cultured in fibroblast conditioned media; conditions: FIG. 3
# Method: Gastric cancer cells, SNU668 cells, were cultured in conditioned media of fibroblasts, CAF98 and CAF104, respectively, and treated with Example to confirm changes in cell viability of cancer cells.
# FIG. 3 illustrates results of confirming the cell viability of SNU66, a gastric cancer cell, under various conditions according to Experimental Example of the present disclosure.
# [3] = test system: SNU668; assay: Migration of gastric cancer cells in fibroblast condition media / co-culture with CAFs; conditions: for migration of gastric cancer cells: FIGS. 4 and 5
# Method: An experiment was performed to confirm changes in migration of gastric cancer cells when treating gastric cancer cells with a substance according to Example (ftaxilide).
# SNU668 was co-cultured with 5-FU in various types of fibroblast condition media, and sequentially additionally treated with 5-FU and Example to confirm changes in the migration of gastric cancer cells.
# FIG. 4 illustrates results of observing the migration of SNU668, a gastric cancer cell, under various conditions according to Experimental Example of the present disclosure.
# FIG. 5 illustrates results of measuring the migration of SNU668, a gastric cancer cell, under various conditions according to Experimental Example of the present disclosure.
# [4] = CAF treated with Example (100 μM 5-FU+5 μM Example)
smiles,measurement,setting,value
"O=c1[nH]cc(F)c(=O)[nH]1 [Example 5-FU, 5-fluorouracil]",shapes of fibroblasts (characteristics of senescent cells),"[1]; fibroblasts CAF47, CAF51, CAF98, CAF104 treated with 5-FU",the cell sizes increased and the cell growth rate slowed down
same,cell viability of cancer cells,"[2]; SNU668 in conditioned medium of CAF98 and CAF104, treated with 5-FU (C98_5FU, C104_5FU)",the cell viability of cancer cells further increased
same,migration of gastric cancer cells,[3]; CAFs senesced by 5-FU then co-cultured with SNU668 (100 μM 5-FU),the migration of gastric cancer cells further increased
same,migration of gastric cancer cells,[3]; SNU668 treated with 5-FU (SNU668+5FU),the migration of gastric cancer cells increased
"Cc1cccc(C)c1NC(=O)c1ccccc1C(=O)O [Example, Ftaxilide]",shapes of fibroblasts,"[1]; fibroblasts treated with 5-FU, then with Example",the senescent fibroblasts returned to their original shapes
same,cell viability of cancer cells,"[2]; SNU668 in conditioned medium of CAF98 and CAF104, 5-FU, further treated with Example (C98_5FU_Ftaxil, C104_5FU_Ftaxil)",decreased again
same,senescence of CAF,[3]; [4],the senescence of CAF was prevented
same,migration of gastric cancer cells,[3]; [4],decreased again
